Measurements as given in PubChem BioAssay AID1259407 (Chemical Carcinogenesis Research Information System (CCRIS), 2018).
Active and inactive are the calls of the source. How the calls were made is not given here.

Tested on: CCRIS mutagenicity, Ames/micronucleus/aberration tests
Experiment: CCRIS mutagenicity studies
Conditions: Method: PREINCUBATION

In the case of `CC(=O)OC(C)(C)C`, the mutagenic call (Test System: AMES SALMONELLA TYPHIMURIUM, Strain/Indicator: TA98, Metabolic Activation: NONE) is reported as “inactive; negative”, the mutagenic call (Test System: AMES SALMONELLA TYPHIMURIUM, Strain/Indicator: TA98, Metabolic Activation: RAT, LIVER, S-9, AROCLOR 1254) is reported as “inactive; negative” and the mutagenic call (Test System: AMES SALMONELLA TYPHIMURIUM, Strain/Indicator: TA100, Metabolic Activation: NONE) is reported as “inactive; negative”. The mutagenic call (Test System: AMES SALMONELLA TYPHIMURIUM, Strain/Indicator: TA100, Metabolic Activation: RAT, LIVER, S-9, AROCLOR 1254) was “inactive; negative”, the mutagenic call (Test System: AMES SALMONELLA TYPHIMURIUM, Strain/Indicator: TA102, Metabolic Activation: NONE) was “inactive; negative” and the mutagenic call (Test System: AMES SALMONELLA TYPHIMURIUM, Strain/Indicator: TA102, Metabolic Activation: RAT, LIVER, S-9, AROCLOR 1254) was “inactive; negative”. The mutagenic call (Test System: AMES SALMONELLA TYPHIMURIUM, Strain/Indicator: TA1535, Metabolic Activation: NONE) was “inactive; negative”, the mutagenic call (Test System: AMES SALMONELLA TYPHIMURIUM, Strain/Indicator: TA1535, Metabolic Activation: RAT, LIVER, S-9, AROCLOR 1254) was “inactive; negative” and the mutagenic call (Test System: AMES SALMONELLA TYPHIMURIUM, Strain/Indicator: TA1537, Metabolic Activation: NONE) was “inactive; negative”. For the same molecule, the mutagenic call (Test System: AMES SALMONELLA TYPHIMURIUM, Strain/Indicator: TA1537, Metabolic Activation: RAT, LIVER, S-9, AROCLOR 1254) was “inactive; negative”, the mutagenic call (Test System: E. COLI, Strain/Indicator: WP2UVRA/PKM, Metabolic Activation: NONE) was “inactive; negative” and the mutagenic call (Test System: E. COLI, Strain/Indicator: WP2UVRA/PKM, Metabolic Activation: RAT, LIVER, S-9, AROCLOR 1254) was “inactive; negative”.
For `CC(Br)C(Br)COP(=O)(OCC(Br)C(C)Br)OCC(Br)C(C)Br` (centres undefined), the mutagenic call (Test System: AMES SALMONELLA TYPHIMURIUM, Strain/Indicator: TA100, Metabolic Activation: RAT, LIVER, MICROSOMES, PHENOBARBITAL) was “active; positive” and the mutagenic call (Test System: AMES SALMONELLA TYPHIMURIUM, Strain/Indicator: TA100, Metabolic Activation: RAT, LIVER, MICROSOMES) was “active; positive”.
